Results from patent publication US20260286420A1, “REAGENT, KIT, METHOD FOR DETECTING ADP, AND USE THEREOF” (Neubo Apptech Co., Ltd., priority 2025, published 2026).

Assay: ATP-removal effect of ATPS and pyrophosphatase, luciferase readout
Assay type: biochemical
Details: 100 μM ATP, 40 min at room temperature
Experimental: The ATP-removal effect of the reagent in Example 1 was verified.
ATP sulfurylase was prepared in the following buffer: 50 mM Tris-HCl buffer (pH 7.4)+10 mM MgCl2+20 mM Na2MoO4, where the concentration of each component is the final concentration in the resultant solution.
Reagent for ADP detection: 50 mM Tris-HCl buffer (pH 7.4)+20 mM MgSO4+50 mM KCl+2 mM EDTA+2 mM EGTA+0.1 mM D-luciferin+0.1 mM PEP-K (phosphoenolpyruvate monopotassium salt)+50 μg/mL luciferase+20 U/mL a pyruvate kinase, where the concentration of each component is the final concentration in the resultant solution.
The bioluminescence detection instrument was an EnVision (Perkin Elmer).
Next, 25 μL of ATP ([…]) was added to each well of a 96-well white opaque assay plate, followed by the addition of 25 μL of pyrophosphatase (PPA: 10 U/mL) and ATP sulfurylase (ATPS) at concentrations of 2 μg/mL, 1 μg/mL, and 0.5 μg/mL.
After incubation at room temperature (22° C.-25° C.) for 40 minutes, 50 μL of the reagent for ADP detection was added and mixed uniformly, and the fluorescence values were read after incubation was performed at room temperature for 10 minutes.
After 1 μM ATP+0.1 mM D-luciferin+50 μg/mL luciferase+50 mM Tris-HCl buffer (pH 7.4)+20 mM MgSO4 were incubated at room temperature for 10 minutes, the fluorescence value read was 439,640.
After 0.1 μM ATP+0.1 mM D-luciferin+50 μg/mL luciferase+50 mM Tris-HCl buffer (pH 7.4)+20 mM MgSO4 were incubated at room temperature for 10 minutes, the fluorescence value read was 47,720.
The remaining ATP after the action of ATPS and PPA was determined by comparing with the fluorescence values under conditions of ATP at 1 μM and 0.1 μM (see Table 2). It can be seen that the remaining ATP of 100 μM ATP under the action of ATPS (1 μg/mL) and pyrophosphatase was about 0.006%.

Q: Which “Luminescence (RLU)” value (ATPS 0.5 μg/mL + PPA 10 U/mL) does the source give for ATPS here?
A: 3.44E+03 RLU

Q: And the “Remaining ATP (%)” value (ATPS 0.5 μg/mL + PPA 10 U/mL)?
A: 0.0072%

Q: And the “Luminescence (RLU)” value (ATPS 1 μg/mL + PPA 10 U/mL)?
A: 2.88E+03 RLU

Q: What about the “Luminescence (RLU)” value (ATPS 2 μg/mL + PPA 10 U/mL) of the same substance?
A: 2.24E+03 RLU

Q: What about the “Remaining ATP (%)” value (ATPS 2 μg/mL + PPA 10 U/mL) of the same substance?
A: 0.0047%
